Experimental data reported in paper PMC7413254 (Nature Communications, 2020).
Like-named read-outs stand apart in the source and are kept apart here.

Assays:
PfCRT^Ecu1110 = PfCRT^Ecu1110 (Plasmodium falciparum, UniProt Q9N623, A220S/I356L/K76T/N326D); assay: [3H]CQ uptake into Xenopus oocytes, cis-inhibition by unlabelled solute; type: cell-based; conditions: read-out: [3H]CQ transport (% PfCRTEcu1110 control), cis-inhibition, PfCRTEcu1110; SEM
Procedure, shortened: (§1)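 Inward transport into oocyte cytosol from pH 5.5 medium models PfCRT efflux from the acidic digestive vacuole. Incubation 1.5 h, 27.5 °C; termination by ice-cold washes; lysate radioactivity counted.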

PfCRT^Dd2 = PfCRT^Dd2 (Plasmodium falciparum, UniProt Q9N623, A220S/I356T/K76T/M74I/N326S/N75E/Q271E/R371I); assay: as above; type: cell-based
PfCRT^Dd2, sequence (Q9N623 whole entry A220S/I356T/K76T/M74I/N326S/N75E/Q271E/R371I): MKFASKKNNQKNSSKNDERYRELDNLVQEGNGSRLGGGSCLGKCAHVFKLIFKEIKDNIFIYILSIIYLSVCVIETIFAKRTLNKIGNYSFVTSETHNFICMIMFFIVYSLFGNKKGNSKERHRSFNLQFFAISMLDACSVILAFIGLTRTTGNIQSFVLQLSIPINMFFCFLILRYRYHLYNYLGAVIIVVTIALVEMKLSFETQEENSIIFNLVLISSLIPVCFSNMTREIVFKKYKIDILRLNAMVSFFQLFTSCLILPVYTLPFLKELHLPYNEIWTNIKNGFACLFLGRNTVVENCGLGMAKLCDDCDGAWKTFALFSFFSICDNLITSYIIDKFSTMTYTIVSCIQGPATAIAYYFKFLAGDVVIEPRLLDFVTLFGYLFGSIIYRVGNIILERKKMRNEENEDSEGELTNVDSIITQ
Procedure, shortened: as §1

non-expressing oocytes [1] = assay: cells; type: cell-based, Xenopus laevis; conditions: Xenopus laevis, total [3H]CQ transport; for inhibition at 500 µM: [test solute] = 0.5 mM; for inhibition at 1000 µM: [test solute] = 1 mM; for inhibition at 2000 µM: [test solute] = 2 mM
Procedure, shortened: as §1

non-expressing oocytes [2] = type: cell-based, Xenopus laevis; conditions: total [3H]CQ transport; for Uptake of [3H]CQ (% non-expressing oocyte control), trans-stimulation: non-expressing oocytes, normalised to the oocyte type control; for Uptake of [3H]CQ (% PfCRTDd2 control), trans-stimulation, non-expressing oocytes: mean ± SEM, SEM
Procedure, shortened: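 Oocytes (ten per treatment, ≥4 independent frogs/days) were preloaded by injecting VF-6 in 25 nL ND96 at pH 5.0, 5.5, 6.0 or 7.0, or Na^+-free choline buffer, then uptake run 1.5 h, 27.5 °C, ND96 pH 5.5 by default. Internal concentrations assumed ~400 nL oocyte volume.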

PfCRT [3] = assay: Influx of VF-6 via PfCRT into the oocyte, solutes tested as potential co-substrates; type: cell-based, Plasmodium falciparum; design: key: X: Compounds that have been tested as potential co-substrates but are not required for influx of VF-6 via PfCRT into the oocyte; conditions: X marks the solute
PfCRT [4] = assay: Test of solutes as potential co-substrates for influx of VF-6 via PfCRT into the oocyte; type: cell-based, Plasmodium falciparum; design: key: X: Compounds that have been tested as potential co-substrates but are not required for influx of VF-6 via PfCRT into the oocyte; conditions: X = tested
PfCRT^3D7 = PfCRT^3D7 (Plasmodium falciparum, UniProt Q8IBZ9); assay: cell-based; type: cell-based; conditions: total [3H]CQ transport; for inhibition at 500 µM: [test solute] = 0.5 mM; for inhibition at 1000 µM: [test solute] = 1 mM; for inhibition at 2000 µM: [test solute] = 2 mM
PfCRT^3D7, sequence (Q8IBZ9 59-398): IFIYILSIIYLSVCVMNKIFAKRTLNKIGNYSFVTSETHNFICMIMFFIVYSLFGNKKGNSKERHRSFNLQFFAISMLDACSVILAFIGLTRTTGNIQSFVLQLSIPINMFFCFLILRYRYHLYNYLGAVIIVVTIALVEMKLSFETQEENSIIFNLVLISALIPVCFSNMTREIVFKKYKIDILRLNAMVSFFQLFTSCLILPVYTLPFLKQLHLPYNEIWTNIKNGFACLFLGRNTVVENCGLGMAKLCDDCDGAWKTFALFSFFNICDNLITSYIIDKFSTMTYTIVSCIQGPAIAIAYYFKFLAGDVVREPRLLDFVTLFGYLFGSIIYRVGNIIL
Procedure, shortened: as §1

[5] = read-out: PfCRT-mediated [3H]CQ transport, cis-inhibition (% PfCRTDd2 control)
[6] = read-out: Uptake of [3H]CQ (% PfCRTDd2 control), cis-inhibition
[7] = read-out: Uptake of [3H]CQ (% PfCRTDd2 control), cis-inhibition, PfCRTDd2, SEM
[8] = read-out: [3H]CQ transport (% PfCRTDd2 control), cis-inhibition, PfCRTDd2, SEM
[9] = Oocyte, mean ± SEM, SEM, read-out: Uptake of [3H]CQ (% PfCRTDd2 control), cis-inhibition, non-expressing oocytes
[10] = non-expressing oocytes, normalised to the oocyte type control, read-out: Uptake of [3H]CQ (% non-expressing oocyte control), cis-inhibition
[11] = PfCRT3D7 oocytes, normalised to the oocyte type control, read-out: Uptake of [3H]CQ (% PfCRT3D7 control), cis-inhibition
[12] = mean ± SEM, SEM, read-out: Uptake of [3H]CQ (% PfCRTDd2 control), cis-inhibition, PfCRT3D7

PfCRT^Ecu1110, sequence (Q9N623 whole entry A220S/I356L/K76T/N326D): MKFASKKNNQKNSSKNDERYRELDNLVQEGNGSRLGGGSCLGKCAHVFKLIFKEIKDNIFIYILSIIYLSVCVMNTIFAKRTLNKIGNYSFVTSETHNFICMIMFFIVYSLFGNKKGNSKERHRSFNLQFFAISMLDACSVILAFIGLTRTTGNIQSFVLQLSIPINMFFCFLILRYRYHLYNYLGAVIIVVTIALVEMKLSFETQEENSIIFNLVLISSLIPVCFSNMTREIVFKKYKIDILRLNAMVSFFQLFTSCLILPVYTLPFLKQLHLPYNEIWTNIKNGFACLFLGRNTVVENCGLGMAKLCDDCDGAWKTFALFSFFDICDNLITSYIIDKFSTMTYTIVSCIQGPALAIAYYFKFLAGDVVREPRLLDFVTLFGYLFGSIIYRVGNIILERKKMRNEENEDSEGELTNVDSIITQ

## N=C(N)NCCC[C@H](N)C(=O)O [L-arginine]
PfCRT^Ecu1110
  inhibition at 500 µM: 30 ± 0.6%
  inhibition at 1000 µM: 29 ± 0.4%
  inhibition at 2000 µM: 30 ± 0.5%
PfCRT^Dd2; [5]
  inhibition at 500 µM: 99 ± 3.2%
  inhibition at 1000 µM: 99 ± 2.6%
  inhibition at 2000 µM: 95 ± 2.4%
PfCRT^Dd2; [6]
  inhibition at 500 µM: 101 ± 4.8%
  inhibition at 1000 µM: 101 ± 5.8%
PfCRT^Dd2; [7]
  inhibition at 500 µM: 101 ± 4.8%
  inhibition at 1000 µM: 101 ± 5.8%
  inhibition at 2000 µM: 98 ± 3.5%
PfCRT^Dd2; [8]
  inhibition at 500 µM: 99 ± 3.2%
  inhibition at 1000 µM: 99 ± 2.6%
non-expressing oocytes [1]; [9]
  inhibition at 500 µM: 2.5 ± 0.06%
  inhibition at 1000 µM: 2.7 ± 0.06%
  inhibition at 2000 µM: 2.1 ± 0.1%
non-expressing oocytes [1]; [10]
  inhibition at 500 µM: 99 ± 3.7%
  inhibition at 1000 µM: 99 ± 2.6%
  inhibition at 2000 µM: 98 ± 5.2%
non-expressing oocytes [2]; [test solute]i = 5 mM
  Uptake of [3H]CQ (% non-expressing oocyte control), trans-stimulation: 97 ± 4.1 % non-expressing oocyte control
non-expressing oocytes [2]; [test solute]i = 45 mM (30 mM for some solutes due to solubility)
  Uptake of [3H]CQ (% non-expressing oocyte control), trans-stimulation: 98 ± 3.9 % non-expressing oocyte control
non-expressing oocytes [2]; [test solute]i = 5 mM (intracellular)
  Uptake of [3H]CQ (% PfCRTDd2 control), trans-stimulation, non-expressing oocytes: 2.7 ± 0.07 % PfCRTDd2 control
non-expressing oocytes [2]; [test solute]i = 45 mM (intracellular; 30 mM for some solutes due to solubility)
  Uptake of [3H]CQ (% PfCRTDd2 control), trans-stimulation, non-expressing oocytes: 3.0 ± 0.01 % PfCRTDd2 control
PfCRT [3]
  Compounds that have been tested as potential co-substrates but are not required for influx of VF-6 via PfCRT into the oocyte: X
PfCRT [4]
  Tested as potential co-substrate but not required for influx of VF-6 via PfCRT into the oocyte: X
PfCRT^3D7; [11]
  inhibition at 500 µM: 100 ± 4.2%
  inhibition at 1000 µM: 99 ± 5.7%
  inhibition at 2000 µM: 100 ± 5.3%
PfCRT^3D7; [12]
  inhibition at 500 µM: 2.4 ± 0.07%
  inhibition at 1000 µM: 2.9 ± 0.05%
  inhibition at 2000 µM: 3.3 ± 0.03%
